Reference: ChEMBL document CHEMBL4152230, “Discovery of N-{3-[(ethanimidoylamino)methyl]benzyl}-l-prolinamide dihydrochloride: A new potent and selective inhibitor of the inducible nitric oxide synthase as a promising agent for the therapy of malignant glioma” (Eur J Med Chem, 2018)
One block for each molecule: values may come before it. Activity calls are given as the source filed them. The calls are words filed in the database; no cut-off is given here.

Key:
[1] = Selectivity index, ratio of IC50 for recombinant bovine eNOS to IC50 for recombinant mouse iNOS
[2] = molecular target: T1, Nitric oxide synthase, inducible (Mus musculus, UniProt P29477); test: Inhibition of recombinant mouse iNOS using [3H]L-arginine as substrate preincubated for 15 mins followed by NADPH addition measured after 20 mins in presence of FMN/FAD by liquid scintillation counting method
T1 sequence (P29477 whole entry): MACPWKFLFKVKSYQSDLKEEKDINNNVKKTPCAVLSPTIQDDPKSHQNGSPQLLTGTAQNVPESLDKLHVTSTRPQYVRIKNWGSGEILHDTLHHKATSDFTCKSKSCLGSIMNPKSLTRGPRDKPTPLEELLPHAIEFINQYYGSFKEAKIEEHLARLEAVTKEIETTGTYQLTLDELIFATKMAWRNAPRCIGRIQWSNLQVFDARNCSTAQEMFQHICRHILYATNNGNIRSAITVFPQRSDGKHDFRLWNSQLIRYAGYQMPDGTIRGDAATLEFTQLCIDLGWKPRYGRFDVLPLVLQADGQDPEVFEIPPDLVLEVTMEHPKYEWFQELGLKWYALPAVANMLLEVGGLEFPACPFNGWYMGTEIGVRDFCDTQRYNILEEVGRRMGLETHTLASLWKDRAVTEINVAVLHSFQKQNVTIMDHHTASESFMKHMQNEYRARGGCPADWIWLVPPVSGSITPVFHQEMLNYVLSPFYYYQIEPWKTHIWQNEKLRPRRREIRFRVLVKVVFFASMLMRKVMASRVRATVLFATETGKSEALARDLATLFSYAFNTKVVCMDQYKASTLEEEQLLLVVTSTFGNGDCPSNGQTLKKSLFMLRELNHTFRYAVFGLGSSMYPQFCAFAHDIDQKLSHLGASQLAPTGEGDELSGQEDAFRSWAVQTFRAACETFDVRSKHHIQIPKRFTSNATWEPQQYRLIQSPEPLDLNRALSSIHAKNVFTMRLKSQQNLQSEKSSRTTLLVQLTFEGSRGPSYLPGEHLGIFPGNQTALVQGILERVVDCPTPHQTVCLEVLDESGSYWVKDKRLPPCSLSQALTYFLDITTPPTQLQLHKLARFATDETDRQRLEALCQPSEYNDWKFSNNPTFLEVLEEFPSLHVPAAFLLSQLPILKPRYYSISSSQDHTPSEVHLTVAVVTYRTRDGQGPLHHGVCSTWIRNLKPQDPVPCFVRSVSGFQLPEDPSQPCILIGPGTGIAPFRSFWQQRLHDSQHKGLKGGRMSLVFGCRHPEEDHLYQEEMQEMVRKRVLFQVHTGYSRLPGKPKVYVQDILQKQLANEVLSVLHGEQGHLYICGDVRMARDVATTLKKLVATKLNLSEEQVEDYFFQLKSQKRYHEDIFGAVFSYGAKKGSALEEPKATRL

Nitric oxide synthase 3 = molecular target: T2, Nitric oxide synthase 3 (Bos taurus, UniProt P29473); test: Inhibition of recombinant bovine eNOS using [3H]L-arginine as substrate preincubated for 15 mins followed by NADPH addition measured after 20 mins in presence of FMN/FAD by liquid scintillation counting method
T2 sequence (P29473 whole entry): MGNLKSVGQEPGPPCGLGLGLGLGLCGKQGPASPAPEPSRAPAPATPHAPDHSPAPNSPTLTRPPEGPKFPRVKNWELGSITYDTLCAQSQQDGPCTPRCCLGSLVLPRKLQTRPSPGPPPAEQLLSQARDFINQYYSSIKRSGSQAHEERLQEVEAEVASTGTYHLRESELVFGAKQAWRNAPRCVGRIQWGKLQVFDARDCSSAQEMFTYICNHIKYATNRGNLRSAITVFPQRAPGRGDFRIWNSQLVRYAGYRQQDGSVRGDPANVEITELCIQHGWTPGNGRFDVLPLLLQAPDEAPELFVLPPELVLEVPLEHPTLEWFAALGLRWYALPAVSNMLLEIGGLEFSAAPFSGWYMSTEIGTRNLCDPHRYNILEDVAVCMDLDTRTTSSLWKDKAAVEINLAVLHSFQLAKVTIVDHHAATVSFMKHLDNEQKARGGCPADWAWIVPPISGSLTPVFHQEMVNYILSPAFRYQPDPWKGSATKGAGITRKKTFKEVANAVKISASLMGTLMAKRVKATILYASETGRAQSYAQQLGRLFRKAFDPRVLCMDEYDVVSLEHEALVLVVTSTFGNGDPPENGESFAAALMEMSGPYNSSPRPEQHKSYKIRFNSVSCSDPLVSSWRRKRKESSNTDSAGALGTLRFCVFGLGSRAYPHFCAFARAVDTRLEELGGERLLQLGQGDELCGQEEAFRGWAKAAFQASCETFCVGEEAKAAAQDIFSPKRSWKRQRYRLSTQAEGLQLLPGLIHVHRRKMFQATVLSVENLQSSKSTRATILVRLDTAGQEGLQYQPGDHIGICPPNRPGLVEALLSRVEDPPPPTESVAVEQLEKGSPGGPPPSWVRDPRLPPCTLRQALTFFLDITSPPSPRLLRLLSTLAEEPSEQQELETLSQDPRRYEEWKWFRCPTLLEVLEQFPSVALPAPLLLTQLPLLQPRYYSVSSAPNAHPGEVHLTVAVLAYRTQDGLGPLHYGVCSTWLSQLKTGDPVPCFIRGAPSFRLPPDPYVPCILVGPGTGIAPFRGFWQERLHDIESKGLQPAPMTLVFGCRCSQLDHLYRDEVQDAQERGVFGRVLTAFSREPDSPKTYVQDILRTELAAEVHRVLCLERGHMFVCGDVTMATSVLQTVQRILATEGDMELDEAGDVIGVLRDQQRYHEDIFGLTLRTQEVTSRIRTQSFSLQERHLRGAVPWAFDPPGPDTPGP

C6 [3] = test: Cytotoxicity against rat C6 cells assessed as LDH release at 0.25 mM after 72 hrs by CytoTox96 non-radioactive assay (reference value: 5.41%); assay type: functional
[4] = Cytotoxicity against rat CTX/TNA2 cells assessed as cell proliferation at 1 mM after 48 hrs by MTT assay relative to control; assay type: cell-based; conditions: read-out: Activity
[5] = Half life in pH 9 NaOH solution after 24 hrs by HPLC analysis; assay type: physicochemical; conditions: pH 9, pH 9
C6 [6] = test: Cytotoxicity against rat C6 cells assessed as cell proliferation at 1 mM after 72 hrs by MTT assay relative to control; assay type: functional; conditions: C6, 72 h, read-out: Activity
[7] = Half life in human plasma by HPLC analysis; assay type: ADME, cell-free
C6 [8] = test: Cytotoxicity against rat C6 cells assessed as LDH release at 1.5 mM after 72 hrs by CytoTox96 non-radioactive assay (reference value: 5.41%); assay type: functional
[9] = Half life in pH 2 HCl after 24 hrs by HPLC analysis; assay type: physicochemical; conditions: HCl solution, pH 2, pH 2
C6 [10] = test: Cell cycle arrest in rat C6 cells assessed as accumulation at S phase at 1.5 mM after 72 hrs by propidium iodide staining based flow cytometry (reference value: 22.64%); assay type: functional
C6 [11] = test: Cytotoxicity against rat C6 cells assessed as cell proliferation at 1.5 mM after 24 hrs by MTT assay relative to control; assay type: functional; conditions: C6, 24 h, read-out: Activity
[12] = Cytotoxicity against rat CTX/TNA2 cells assessed as cell proliferation at 1 mM after 24 hrs by MTT assay relative to control; assay type: cell-based; conditions: read-out: Activity
C6 [13] = test: Cytotoxicity against rat C6 cells assessed as LDH release at 2 mM after 72 hrs by CytoTox96 non-radioactive assay (reference value: 5.41%); assay type: functional
[14] = Selectivity ratio of IC50 for recombinant rat nNOS to IC50 for recombinant mouse iNOS
C6 [15] = test: Cytotoxicity against rat C6 cells assessed as cell proliferation at 2 mM after 72 hrs by MTT assay relative to control; assay type: functional; conditions: C6, 72 h, read-out: Activity
C6 [16] = test: Cytotoxicity against rat C6 cells assessed as LDH release at 0.5 mM after 72 hrs by CytoTox96 non-radioactive assay (reference value: 5.41%); assay type: functional
C6 [17] = test: Cytotoxicity against rat C6 cells assessed as LDH release at 0.75 mM after 72 hrs by CytoTox96 non-radioactive assay (reference value: 5.41%); assay type: functional
C6 [18] = test: Cytotoxicity against rat C6 cells assessed as cell proliferation at 1.5 mM after 72 hrs by MTT assay relative to control; assay type: functional; conditions: C6, 72 h, read-out: Activity
C6 [19] = test: Cytotoxicity against rat C6 cells assessed as cell proliferation at 0.25 mM after 48 hrs by MTT assay relative to control; assay type: functional; conditions: C6, 48 h, read-out: Activity
[20] = molecular target: Nitric oxide synthase, inducible (Rattus norvegicus) (UniProt Q06518); test: Ex vivo inhibition of iNOS in mesenteric vascular arteries isolated from LPS-induced septic shock Sprague-Dawley rat model assessed as increase in noradrenaline-mediated vasoconstriction by measuring changes in perfusion pressure at 0.06 uM preincubated for 30 mins followed by noradrenaline treatment
[21] = Half life in pH 7.4 PBS buffer after 24 hrs by HPLC analysis; assay type: physicochemical; conditions: pH 7.4, pH 7.4
[22] = Cytotoxicity against rat CTX/TNA2 cells assessed as inhibition of cell proliferation at 0.25 to 2 mM up to 72 hrs by MTT assay; assay type: cell-based; conditions: 2000 µM
C6 [23] = test: Cytotoxicity against rat C6 cells assessed as LDH release at 1 mM after 72 hrs by CytoTox96 non-radioactive assay (reference value: 5.41%); assay type: functional
C6 [24] = test: Cytotoxicity against rat C6 cells assessed as cell proliferation at 2 mM after 24 hrs by MTT assay relative to control; assay type: functional; conditions: C6, 24 h, read-out: Activity
Nitric oxide synthase 1 = Nitric oxide synthase 1 (Rattus norvegicus, UniProt P29476); test: Inhibition of recombinant rat nNOS using [3H]L-arginine as substrate preincubated for 15 mins followed by NADPH addition measured after 20 mins in presence of FMN/FAD by liquid scintillation counting method
C6 [25] = test: Cytotoxicity against rat C6 cells assessed as inhibition of cell proliferation after 24 to 48 hrs by MTT assay; assay type: functional, cell-based
C6 [26] = test: Cell cycle arrest in rat C6 cells assessed as accumulation at G1 phase at 1.5 mM after 72 hrs by propidium iodide staining based flow cytometry (reference value: 63.97%); assay type: functional
C6 [27] = test: Cytotoxicity against rat C6 cells assessed as cell proliferation at 1 mM after 24 hrs by MTT assay relative to control; assay type: functional; conditions: C6, 24 h, read-out: Activity

Sequence of Nitric oxide synthase, inducible (Rattus norvegicus) (Q06518 whole entry, the tested form may be a part): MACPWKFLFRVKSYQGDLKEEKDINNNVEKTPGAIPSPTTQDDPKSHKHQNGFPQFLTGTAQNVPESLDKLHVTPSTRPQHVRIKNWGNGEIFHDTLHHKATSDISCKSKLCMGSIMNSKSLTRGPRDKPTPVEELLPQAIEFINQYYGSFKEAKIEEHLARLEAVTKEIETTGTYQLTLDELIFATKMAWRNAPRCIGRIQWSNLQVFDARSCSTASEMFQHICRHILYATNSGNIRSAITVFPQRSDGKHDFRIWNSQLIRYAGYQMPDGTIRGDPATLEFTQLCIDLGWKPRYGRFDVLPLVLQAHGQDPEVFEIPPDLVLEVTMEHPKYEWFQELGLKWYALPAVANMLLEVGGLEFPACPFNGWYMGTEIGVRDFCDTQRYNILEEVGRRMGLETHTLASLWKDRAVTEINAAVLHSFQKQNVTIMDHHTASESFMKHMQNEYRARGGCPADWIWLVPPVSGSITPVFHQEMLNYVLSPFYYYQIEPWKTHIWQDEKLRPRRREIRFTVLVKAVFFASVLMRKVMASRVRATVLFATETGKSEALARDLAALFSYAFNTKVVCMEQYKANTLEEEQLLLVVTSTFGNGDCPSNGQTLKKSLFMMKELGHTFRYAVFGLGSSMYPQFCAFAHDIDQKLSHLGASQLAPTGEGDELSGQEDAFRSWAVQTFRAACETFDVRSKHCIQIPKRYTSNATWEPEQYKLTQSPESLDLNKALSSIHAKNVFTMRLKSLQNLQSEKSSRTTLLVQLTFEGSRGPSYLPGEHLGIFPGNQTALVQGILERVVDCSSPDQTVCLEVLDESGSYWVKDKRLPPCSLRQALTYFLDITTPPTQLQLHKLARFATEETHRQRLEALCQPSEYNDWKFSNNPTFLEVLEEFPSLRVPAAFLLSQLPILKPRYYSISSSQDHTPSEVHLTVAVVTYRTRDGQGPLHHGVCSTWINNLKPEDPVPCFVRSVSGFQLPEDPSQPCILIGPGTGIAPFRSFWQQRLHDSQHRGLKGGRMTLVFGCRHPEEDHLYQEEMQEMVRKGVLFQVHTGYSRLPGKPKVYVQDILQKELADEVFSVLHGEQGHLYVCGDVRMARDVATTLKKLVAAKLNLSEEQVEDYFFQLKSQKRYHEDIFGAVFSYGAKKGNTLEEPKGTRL
Sequence of Nitric oxide synthase 1 (P29476 whole entry): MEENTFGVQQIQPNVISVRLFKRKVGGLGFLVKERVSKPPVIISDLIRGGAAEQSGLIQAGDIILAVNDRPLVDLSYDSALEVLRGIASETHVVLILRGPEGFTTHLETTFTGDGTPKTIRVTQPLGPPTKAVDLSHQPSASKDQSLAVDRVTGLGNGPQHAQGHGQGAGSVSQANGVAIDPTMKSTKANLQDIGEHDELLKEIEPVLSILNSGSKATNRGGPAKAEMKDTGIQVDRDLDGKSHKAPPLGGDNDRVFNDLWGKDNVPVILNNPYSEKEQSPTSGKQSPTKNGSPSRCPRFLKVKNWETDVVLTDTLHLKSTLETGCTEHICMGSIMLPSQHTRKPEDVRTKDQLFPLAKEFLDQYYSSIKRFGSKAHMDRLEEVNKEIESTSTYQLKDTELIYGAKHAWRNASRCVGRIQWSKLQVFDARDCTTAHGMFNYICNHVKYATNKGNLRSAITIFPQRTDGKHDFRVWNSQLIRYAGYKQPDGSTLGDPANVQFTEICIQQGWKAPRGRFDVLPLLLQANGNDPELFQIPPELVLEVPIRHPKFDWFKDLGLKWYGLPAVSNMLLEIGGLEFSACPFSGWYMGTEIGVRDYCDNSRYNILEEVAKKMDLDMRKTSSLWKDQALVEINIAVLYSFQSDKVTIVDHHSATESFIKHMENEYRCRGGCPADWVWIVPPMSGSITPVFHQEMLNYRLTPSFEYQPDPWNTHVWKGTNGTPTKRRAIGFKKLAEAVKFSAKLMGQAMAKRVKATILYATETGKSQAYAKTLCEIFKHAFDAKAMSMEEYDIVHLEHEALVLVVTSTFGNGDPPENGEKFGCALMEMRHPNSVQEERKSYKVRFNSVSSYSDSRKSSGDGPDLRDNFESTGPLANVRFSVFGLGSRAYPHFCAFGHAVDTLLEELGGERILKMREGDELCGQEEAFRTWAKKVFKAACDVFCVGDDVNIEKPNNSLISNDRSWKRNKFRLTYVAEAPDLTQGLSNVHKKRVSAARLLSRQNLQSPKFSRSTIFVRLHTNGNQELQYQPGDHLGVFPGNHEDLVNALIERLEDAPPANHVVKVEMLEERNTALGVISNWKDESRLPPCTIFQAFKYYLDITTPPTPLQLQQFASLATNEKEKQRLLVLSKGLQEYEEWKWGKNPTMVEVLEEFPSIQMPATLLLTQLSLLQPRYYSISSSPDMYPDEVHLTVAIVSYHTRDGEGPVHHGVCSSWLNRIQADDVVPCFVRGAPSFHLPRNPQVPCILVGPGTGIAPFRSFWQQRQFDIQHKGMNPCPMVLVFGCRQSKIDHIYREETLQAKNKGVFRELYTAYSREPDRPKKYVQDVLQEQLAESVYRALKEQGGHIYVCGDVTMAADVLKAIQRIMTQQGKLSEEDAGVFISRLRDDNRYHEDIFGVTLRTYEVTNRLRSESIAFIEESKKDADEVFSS

IC50 [2]: > 10 µM
SMILES: CC(=N)NCc1cccc(CNC(=O)[C@@H](N)Cc2ccc(O)cc2)c1

Ratio IC50 [1]: > 1870
IC50 [2]: 0.534 µM
IC50 (Nitric oxide synthase 3): > 1000 µM
SMILES: CC(=N)NCc1cccc(CNC(=O)[C@@H](N)Cc2cnc[nH]2)c1

Continued, molecule first:

SMILES: CC(=N)NCc1cccc(CNC(=O)[C@H](C)N)c1
Ratio IC50 [1]: > 3600
IC50 [2]: 0.276 µM
IC50 (Nitric oxide synthase 3): > 1000 µM

SMILES: CC(=N)NCc1cccc(CNC(=O)[C@@H](N)CCC(N)=O)c1
IC50 [2]: > 10 µM

SMILES: CC(=N)NCc1cccc(CNC(=O)[C@@H]2CCCN2)c1.Cl.Cl
Activity (C6 [3]): 26.54%
Ratio IC50 [1]: 4570
viability at 48 h, 1000 µM [4]: 125%
half-life [5]: > 24 h
growth at 1000 µM (C6 [6]): 77.5%
IC50 [2]: 0.058 µM
half-life [7]: 11 h
Activity (C6 [8]): 23.27%
half-life [9]: > 24 h
Activity (C6 [10]): 12.12%
growth at 1500 µM (C6 [11]): 114%
viability at 24 h, 1000 µM [12]: 122%
Activity (C6 [13]): <=25.52%
Ratio IC50 [14]: > 172
growth at 2000 µM (C6 [15]): 55.2%
Activity (C6 [16]): 27.21%
Activity (C6 [17]): 20.99%
growth at 1500 µM (C6 [18]): 63.2%
growth at 250 µM (C6 [19]): 80.4%
inhibition [20]: Active
half-life [21]: > 24 h
Activity [22]: Non-Toxic
Activity (C6 [23]): 16.78%
growth at 2000 µM (C6 [24]): ≤ 89.5%
IC50 (Nitric oxide synthase 3): 265 µM
IC50 (Nitric oxide synthase 1): > 10 µM
inhibition (C6 [25]): Dose-dependent effect
Activity (C6 [26]): 71.79%
growth at 1000 µM (C6 [27]): 118%

SMILES: CC(=N)NCc1cccc(CNC(=O)[C@@H](N)CC(C)C)c1
Ratio IC50 [1]: 1180
IC50 [2]: 0.253 µM
IC50 (Nitric oxide synthase 3): 300 µM
